Assay results taken from ChEMBL document CHEMBL1201862, “PubChem BioAssay data set” (2004).
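96-well plates; 48 h exposure; 5 concentrations. Endpoints by linear interpolation between flanking doses. Not reached: highest tested concentration assigned. GI50: concentration for 50% inhibition of growth.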 The source made the active and inactive calls. Rule as the data show it: active = GI50 up to about 1.1 µM and inactive = higher.

How the values were obtained:
Test in all cases: growth of human tumour cells (NCI), 48 h
[1] = test system: 786-0
[2] = test system: A498
[3] = test system: A549
[4] = test system: ACHN
[5] = test system: CAKI-1
[6] = test system: CCRF-CEM
[7] = test system: COLO 205
[8] = test system: DLD-1
[9] = test system: DMS-114
[10] = test system: DMS-273
[11] = test system: EKVX
[12] = test system: HCC 2998
[13] = test system: HCT-116
[14] = test system: HCT-15
[15] = test system: HL-60
[16] = test system: HOP-18
[17] = test system: HOP-62
[18] = test system: HOP-92
[19] = test system: HT-29
[20] = test system: IGROV-1
[21] = test system: K562
[22] = test system: KM-20L2
[23] = test system: KM12
[24] = test system: LOX IMVI
[25] = test system: LXFL 529
[26] = test system: M14
[27] = test system: M19-MEL
[28] = test system: MOLT-4
[29] = test system: Malme-3M
[30] = test system: NCI-H226
[31] = test system: NCI-H23
[32] = test system: NCI-H460
[33] = test system: NCI-H522
[34] = test system: OVCAR-3
[35] = test system: OVCAR-4
[36] = test system: OVCAR-5
[37] = test system: OVCAR-8
[38] = test system: RPMI-8226
[39] = test system: RXF 393
[40] = test system: RXF 631
[41] = test system: SF-268
[42] = test system: SF-295
[43] = test system: SF-539
[44] = test system: SK-MEL-28
[45] = test system: SK-MEL-2
[46] = test system: SK-MEL-5
[47] = test system: SK-OV-3
[48] = test system: SN12C
[49] = test system: SNB-19
[50] = test system: SNB-75
[51] = test system: SNB-78
[52] = test system: SR
[53] = test system: SW-620
[54] = test system: TK-10
[55] = test system: U-251
[56] = test system: UACC-257
[57] = test system: UACC-62
[58] = test system: UO-31

For `CC(=O)Nc1ccc(SC#N)c2c(NC(C)=O)cccc12`, the GI50 [1] was > 100 µM (inactive), the GI50 [2] was > 100 µM (inactive) and the GI50 [3] was > 100 µM (inactive). For the same compound, the GI50 [4] was > 100 µM (inactive), the GI50 [5] was > 65 µM (inactive) and the GI50 [6] was 30.3 µM (inactive). For the same compound, the GI50 [7] was > 68.4 µM (inactive), the GI50 [8] was 71.6 µM (inactive) and the GI50 [9] was 43.1 µM (inactive). The GI50 [10] was > 100 µM (inactive), the GI50 [11] was > 100 µM (inactive) and the GI50 [12] was > 100 µM (inactive). For the same compound, the GI50 [13] was > 86.3 µM (inactive), the GI50 [14] was 53.8 µM and the GI50 [15] was 24.1 µM (inactive). For the same compound, the GI50 [16] was 45.2 µM (inactive), the GI50 [17] was > 100 µM (inactive) and the GI50 [18] was 50.7 µM (inactive). The GI50 [19] was > 100 µM (inactive), the GI50 [20] was > 100 µM (inactive) and the GI50 [21] was 34 µM (inactive). The GI50 [22] was > 100 µM (inactive), the GI50 [23] was > 66.8 µM (inactive) and the GI50 [24] was 56.4 µM (inactive). The GI50 [25] was 28 µM (inactive), the GI50 [26] was > 100 µM (inactive) and the GI50 [27] was > 100 µM (inactive). For the same compound, the GI50 [28] was 28.7 µM (inactive), the GI50 [29] was > 100 µM (inactive) and the GI50 [30] was > 100 µM (inactive). The GI50 [31] was > 100 µM (inactive), the GI50 [32] was > 100 µM (inactive) and the GI50 [33] was > 47.6 µM (inactive). For the same compound, the GI50 [34] was 89.9 µM (inactive), the GI50 [35] was > 92.9 µM (inactive) and the GI50 [36] was > 100 µM (inactive). For the same compound, the GI50 [37] was > 100 µM (inactive), the GI50 [38] was 24.4 µM (inactive) and the GI50 [39] was > 100 µM (inactive). The GI50 [40] was > 82.8 µM (inactive), the GI50 [41] was 98.4 µM (inactive) and the GI50 [42] was > 100 µM (inactive). The GI50 [43] was > 100 µM (inactive), the GI50 [44] was 84.3 µM (inactive) and the GI50 [45] was > 100 µM (inactive). For the same compound, the GI50 [46] was > 100 µM (inactive), the GI50 [47] was > 100 µM (inactive) and the GI50 [48] was > 100 µM (inactive). The GI50 [49] was > 100 µM (inactive), the GI50 [50] was > 100 µM (inactive) and the GI50 [51] was 99.3 µM (inactive). For the same compound, the GI50 [52] was 33.6 µM (inactive), the GI50 [53] was 43.1 µM (inactive) and the GI50 [54] was > 100 µM (inactive). The GI50 [55] was > 100 µM (inactive), the GI50 [56] was > 100 µM (inactive) and the GI50 [57] was 78.3 µM (inactive). The GI50 [58] was > 95.5 µM (inactive).
`C1CSC(=[N+]2CC[N+](=C3SCCS3)CC2)S1` was tested, and the GI50 [1] was > 100 µM (inactive), the GI50 [2] was > 100 µM (inactive) and the GI50 [3] was > 100 µM (inactive). For the same compound, the GI50 [4] was > 100 µM (inactive), the GI50 [5] was > 100 µM (inactive) and the GI50 [6] was 36.6 µM (inactive). For the same compound, the GI50 [7] was > 100 µM (inactive), the GI50 [8] was > 100 µM (inactive) and the GI50 [9] was > 100 µM (inactive). For the same compound, the GI50 [10] was > 100 µM (inactive), the GI50 [11] was > 100 µM (inactive) and the GI50 [12] was > 100 µM (inactive). The GI50 [13] was > 100 µM (inactive), the GI50 [14] was over 100 µM and the GI50 [15] was > 100 µM (inactive). For the same compound, the GI50 [16] was > 100 µM (inactive), the GI50 [17] was > 100 µM (inactive) and the GI50 [18] was 45.4 µM (inactive). The GI50 [19] was > 100 µM (inactive), the GI50 [20] was > 100 µM (inactive) and the GI50 [21] was > 100 µM (inactive). For the same compound, the GI50 [22] was > 100 µM (inactive), the GI50 [23] was > 100 µM (inactive) and the GI50 [24] was 39.2 µM (inactive). The GI50 [25] was > 100 µM (inactive), the GI50 [26] was > 100 µM (inactive) and the GI50 [27] was > 100 µM (inactive). For the same compound, the GI50 [28] was 44.9 µM (inactive), the GI50 [29] was > 100 µM (inactive) and the GI50 [31] was > 100 µM (inactive). For the same compound, the GI50 [32] was > 100 µM (inactive), the GI50 [33] was > 100 µM (inactive) and the GI50 [34] was > 100 µM (inactive). The GI50 [35] was > 100 µM (inactive), the GI50 [36] was > 100 µM (inactive) and the GI50 [37] was > 100 µM (inactive). For the same compound, the GI50 [38] was > 100 µM (inactive), the GI50 [39] was > 100 µM (inactive) and the GI50 [40] was > 100 µM (inactive). The GI50 [41] was > 100 µM (inactive), the GI50 [42] was > 100 µM (inactive) and the GI50 [43] was > 100 µM (inactive). For the same compound, the GI50 [44] was > 100 µM (inactive), the GI50 [45] was > 100 µM (inactive) and the GI50 [46] was > 100 µM (inactive). The GI50 [47] was > 100 µM (inactive), the GI50 [48] was > 100 µM (inactive) and the GI50 [49] was > 100 µM (inactive). The GI50 [50] was > 100 µM (inactive), the GI50 [51] was > 100 µM (inactive) and the GI50 [52] was 83.8 µM (inactive). The GI50 [53] was > 100 µM (inactive), the GI50 [54] was > 100 µM (inactive) and the GI50 [55] was > 100 µM (inactive). For the same compound, the GI50 [56] was > 100 µM (inactive), the GI50 [57] was > 100 µM (inactive) and the GI50 [58] was > 100 µM (inactive).
